This note sets out measurements from patent US10745388B2, “Indazole compounds and uses thereof” (Incyte Corporation, priority 2018, dated 2020).

Where only a bound is given, the exact number is not on record here.

Sequence of HPK1 (Q92918 1-346 limits assumed): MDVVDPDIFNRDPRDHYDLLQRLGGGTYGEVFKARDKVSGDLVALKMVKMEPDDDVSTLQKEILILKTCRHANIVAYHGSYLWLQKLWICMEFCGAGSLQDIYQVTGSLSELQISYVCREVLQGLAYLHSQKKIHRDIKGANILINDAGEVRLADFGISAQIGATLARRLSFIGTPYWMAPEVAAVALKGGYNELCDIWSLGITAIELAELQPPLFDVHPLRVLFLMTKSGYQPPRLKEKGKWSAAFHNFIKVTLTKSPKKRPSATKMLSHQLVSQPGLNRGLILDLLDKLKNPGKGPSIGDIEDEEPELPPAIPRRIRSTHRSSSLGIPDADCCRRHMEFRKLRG

The assay addresses HPK1 (Homo sapiens (Human), UniProt Q92918). Nature of the assay: HPK1 Kinase Binding Assay. Conditions: LanthaScreen tracer 222 binding, active HPK1, one hour incubation at 25° C. The method, then: A stock solution of 1 mM test compound was prepared in DMSO. The compound plate was prepared by 3-fold and 11-point serial dilutions. 0.1 μL of the compound in DMSO was transferred from the compound plate to the white 384 well polystyrene plates. The assay buffer contained 50 mM HEPES, pH 7.5, 0.01% Tween-20, 5 mM MgCl2, 0.01% BSA, and 5 mM DTT. 5 μL of 4 nM active HPK1 (SignalChem M23-11G) prepared in the buffer was added to the plate. The enzyme concentration given was based on the given stock concentration reported by the vender. 5 μL of 18 nM tracer 222 (ThermoFisher PV6121) and 4 nM LanthaScreen Eu-Anti GST antibody (ThermoFisher PV5595) were added. After one hour incubation at 25° C., the plates were read on a PHERAstar FS plate reader (BMG Labtech). Ki values were determined.
A general note: In TR-FRET formats the signal depends on donor and acceptor labels being close together.
For `COc1cccc(F)c1-c1nccc(C(=O)Nc2ccc3c(cnn3C)c2N(C)Cc2ccccc2)n1` [Example 5, N-(4-(Benzyl(methyl)amino)-1-methyl-1H-indazol-5-yl)-2-(2-fluoro-6-methoxyphenyl)pyrimidine-4-carboxamide], the inhibition constant (Ki) was at most 100 nM.
Next, `COc1cccc(F)c1-c1nccc(C(=O)Nc2ccc3c(cnn3C)c2N(C)CC(C)(C)O)n1` [Example 8, 2-(2-Fluoro-6-methoxyphenyl)-N-(4-((2-hydroxy-2-methylpropyl)(methyl)amino)-1-methyl-1H-indazol-5-yl)pyrimidine-4-carboxamide]: at most 100 nM.
In turn, `COc1cccc(F)c1-c1nccc(C(=O)Nc2ccc3c(cnn3C)c2N(C)[C@H]2CCN(C(=O)N(C)C)C2)n1` [Example 14, (S)—N-(4-((1-(Dimethylcarbamoyl)pyrrolidin-3-yl)(methyl)amino)-1-methyl-1H-indazol-5-yl)-2-(2-fluoro-6-methoxyphenyl)pyrimidine-4-carboxamide] came in with a Ki of at most 100 nM.
The compound `CNCc1ccccc1-c1c(NC(=O)c2ccnc(-c3c(F)cccc3OC)n2)ccc2c1cnn2C` [Example 15, 2-(2-Fluoro-6-methoxyphenyl)-N-(1-methyl-4-(2-((methylamino)methyl)phenyl)-1H-indazol-5-yl)pyrimidine-4-carboxamide] registered a Ki of at most 100 nM.
In turn, `COc1cccc(F)c1-c1nccc(C(=O)Nc2ccc3nn(C)cc3c2N(C)CCO)n1` [1, Peak 1] had a Ki of at most 100 nM.
As to `COc1cccc(F)c1-c1nccc(C(=O)Nc2ccc3c(cnn3C)c2N(C)CC2CCCO2)n1` (stereo not drawn) [Example 9, 2-(2-Fluoro-6-methoxyphenyl)-N-(1-methyl-4-(methyl((tetrahydrofuran-2-yl)methyl)amino)-1H-indazol-5-yl)pyrimidine-4-carboxamide], the Ki is at most 100 nM.
In turn, `COc1cccc(F)c1-c1nccc(C(=O)Nc2ccc3c(cnn3C)c2N(C)C2CCN(C)CC2)n1` [Example 2, 2-(2-Fluoro-6-methoxyphenyl)-N-(1-methyl-4-(methyl(1-methylpiperidin-4-yl)amino)-1H-indazol-5-yl)pyrimidine-4-carboxamide] yielded a Ki of at most 100 nM.
Turning to `COc1cccc(F)c1-c1nccc(C(=O)Nc2ccc3c(cnn3C)c2N(C)C)n1` [Example 4, N-(4-(Dimethylamino)-1-methyl-1H-indazol-5-yl)-2-(2-fluoro-6-methoxyphenyl)pyrimidine-4-carboxamide], the Ki was at most 100 nM.
As for `COc1cccc(F)c1-c1nccc(C(=O)Nc2ccc3c(cnn3C)c2N(C)Cc2cccnc2)n1` [Example 6, 2-(2-Fluoro-6-methoxyphenyl)-N-(1-methyl-4-(methyl(pyridin-3-ylmethyl)amino)-1H-indazol-5-yl)pyrimidine-4-carboxamide], the Ki was at most 100 nM.
In turn, `COc1cccc(F)c1-c1nccc(C(=O)Nc2ccc3c(cnn3C)c2N(C)C2CC2)n1` [Example 3, N-(4-(Cyclopropyl(methyl)amino)-1-methyl-1H-indazol-5-yl)-2-(2-fluoro-6-methoxyphenyl)pyrimidine-4-carboxamide] displayed a Ki of at most 100 nM.
For `COc1cccc(F)c1-c1nccc(C(=O)Nc2ccc3c(cnn3C)c2N(C)[C@H]2CCN(C(C)=O)C2)n1` [Example 12, (S)—N-(4-((1-acetylpyrrolidin-3-yl)(methyl)amino)-1-methyl-1H-indazol-5-yl)-2-(2-fluoro-6-methoxyphenyl)pyrimidine-4-carboxamide] the value was at most 100 nM; for `COc1cccc(F)c1-c1nccc(C(=O)Nc2ccc3c(cnn3C)c2N(C)C2CCOCC2)n1` [Example 7], at most 100 nM.
For the compound `COc1cccc(F)c1-c1nccc(C(=O)Nc2ccc3c(cnn3C)c2N(C)[C@H]2CCNC2)n1` [Example 11, (S)-2-(2-Fluoro-6-methoxyphenyl)-N-(1-methyl-4-(methyl(pyrrolidin-3-yl)amino)-1H-indazol-5-yl)pyrimidine-4-carboxamide], the Ki is at most 100 nM.
In the case of `COc1cccc(F)c1-c1nccc(C(=O)Nc2ccc3c(cnn3C)c2N(C)[C@H]2CCN(S(C)(=O)=O)C2)n1` [Example 13, (S)-2-(2-Fluoro-6-methoxyphenyl)-N-(1-methyl-4-(methyl(1-(methylsulfonyl)pyrrolidin-3-yl)amino)-1H-indazol-5-yl)pyrimidine-4-carboxamide], the Ki was at most 100 nM.
As to `COc1cccc(F)c1-c1nccc(C(=O)Nc2ccc3c(cnn3C)c2N(C)CC2(O)COC2)n1` [Example 10, 2-(2-Fluoro-6-methoxyphenyl)-N-(4-(((3-hydroxyoxetan-3-yl)methyl)(methyl)amino)-1-methyl-1H-indazol-5-yl)pyrimidine-4-carboxamide], the Ki fell in the range of 500 to 5000 nM.

As a reminder, the Ki is the dissociation constant of the complex between target and ligand, obtained from inhibition or displacement. Low values mean a stronger hold on the target, high ones a looser hold on the target.
